Source: the NIST ThermoML archive (doi:10.1016/j.jct.2013.10.001)
“And” between values parts separate entries of the source, which are not always exact repeats. Identical values can stand only once.

Details: Liquid

CC(C)CCCC(C)CCCC(C)CCCCC(C)CCCC(C)CCCC(C)C (stereo not drawn) [2,6,10,15,19,23-hexamethyltetracosane]
Details	viscosity
333.15 K, 9160 kPa, quartz resonator viscometer	9 mPa·s
333.15 K, 19900 kPa, quartz resonator viscometer	10.9 mPa·s
333.15 K, 30240 kPa, quartz resonator viscometer	13 mPa·s and 13.1 mPa·s
333.15 K, 40000 kPa, quartz resonator viscometer	15.3 mPa·s
333.15 K, 49340 kPa, quartz resonator viscometer	17.7 mPa·s
333.15 K, 60990 kPa, quartz resonator viscometer	21.4 mPa·s
333.15 K, 70280 kPa, quartz resonator viscometer	25 mPa·s
333.15 K, 80900 kPa, quartz resonator viscometer	28.5 mPa·s and 28.6 mPa·s
338.15 K, 50600 kPa, Falling or rolling sphere viscometry	15.56 mPa·s
338.15 K, 102800 kPa, Falling or rolling sphere viscometry	32.94 mPa·s
338.15 K, 150200 kPa, Falling or rolling sphere viscometry	60.9 mPa·s
338.15 K, 198400 kPa, Falling or rolling sphere viscometry	108.9 mPa·s
338.15 K, 249700 kPa, Falling or rolling sphere viscometry	194 mPa·s
338.15 K, 272700 kPa, Falling or rolling sphere viscometry	243.8 mPa·s
338.15 K, 299800 kPa, Falling or rolling sphere viscometry	327.6 mPa·s
338.15 K, 349200 kPa, Falling or rolling sphere viscometry	538.5 mPa·s and 531 mPa·s
343.15 K, 10000 kPa, Falling or rolling sphere viscometry	7.3 mPa·s
343.15 K, 15000 kPa, Falling or rolling sphere viscometry	8 mPa·s
343.15 K, 25000 kPa, Falling or rolling sphere viscometry	9.4 mPa·s
343.15 K, 50000 kPa, Falling or rolling sphere viscometry	13.6 mPa·s
343.15 K, 75000 kPa, Falling or rolling sphere viscometry	19.2 mPa·s and 18.7 mPa·s
343.15 K, 100000 kPa, Falling or rolling sphere viscometry	26.5 mPa·s and 27.2 mPa·s
343.15 K, 125000 kPa, Falling or rolling sphere viscometry	36.2 mPa·s and 38.1 mPa·s
343.15 K, 150000 kPa, Falling or rolling sphere viscometry	49.1 mPa·s and 52 mPa·s
343.15 K, 175000 kPa, Falling or rolling sphere viscometry	69.9 mPa·s
343.15 K, 200000 kPa, Falling or rolling sphere viscometry	92.8 mPa·s
343.15 K, 225000 kPa, Falling or rolling sphere viscometry	122.1 mPa·s
343.15 K, 250000 kPa, Falling or rolling sphere viscometry	159.6 mPa·s
348.15 K, 20000 kPa, Falling or rolling sphere viscometry	7.45 mPa·s
348.15 K, 40000 kPa, Falling or rolling sphere viscometry	10.15 mPa·s
348.15 K, 60000 kPa, Falling or rolling sphere viscometry	13.51 mPa·s
348.15 K, 80000 kPa, Falling or rolling sphere viscometry	17.79 mPa·s
348.15 K, 100000 kPa, Falling or rolling sphere viscometry	23.08 mPa·s
348.15 K, 120000 kPa, Falling or rolling sphere viscometry	29.61 mPa·s
348.15 K, 140000 kPa, Falling or rolling sphere viscometry	37.63 mPa·s
348.15 K, 160000 kPa, Falling or rolling sphere viscometry	48.09 mPa·s
348.15 K, 180000 kPa, Falling or rolling sphere viscometry	60.38 mPa·s
348.15 K, 198300 kPa, Falling or rolling sphere viscometry	70.83 mPa·s
348.15 K, 200000 kPa, Falling or rolling sphere viscometry	74.91 mPa·s
348.15 K, 200400 kPa, Falling or rolling sphere viscometry	72.63 mPa·s
348.15 K, 300600 kPa, Falling or rolling sphere viscometry	202.9 mPa·s
348.15 K, 349800 kPa, Falling or rolling sphere viscometry	327.6 mPa·s
363.15 K, 10200 kPa, Falling or rolling sphere viscometry	4.36 mPa·s
363.15 K, 21000 kPa, Falling or rolling sphere viscometry	5.15 mPa·s
363.15 K, 30900 kPa, Falling or rolling sphere viscometry	5.97 mPa·s
363.15 K, 40700 kPa, Falling or rolling sphere viscometry	6.84 mPa·s
363.15 K, 50600 kPa, Falling or rolling sphere viscometry	7.82 mPa·s
363.15 K, 60600 kPa, Falling or rolling sphere viscometry	8.94 mPa·s
363.15 K, 70700 kPa, Falling or rolling sphere viscometry	10.18 mPa·s
363.15 K, 80600 kPa, Falling or rolling sphere viscometry	11.49 mPa·s
363.15 K, 91000 kPa, Falling or rolling sphere viscometry	13.06 mPa·s
363.15 K, 100000 kPa, Falling or rolling sphere viscometry	14.59 mPa·s and 14.2 mPa·s
363.15 K, 120400 kPa, Falling or rolling sphere viscometry	18.36 mPa·s
363.15 K, 125000 kPa, Falling or rolling sphere viscometry	19.9 mPa·s
363.15 K, 150000 kPa, Falling or rolling sphere viscometry	26.8 mPa·s
363.15 K, 150300 kPa, Falling or rolling sphere viscometry	25.56 mPa·s
363.15 K, 175000 kPa, Falling or rolling sphere viscometry	35.1 mPa·s
363.15 K, 200000 kPa, Falling or rolling sphere viscometry	45 mPa·s
363.15 K, 200200 kPa, Falling or rolling sphere viscometry	42.82 mPa·s
363.15 K, 225000 kPa, Falling or rolling sphere viscometry	56.7 mPa·s
363.15 K, 225600 kPa, Falling or rolling sphere viscometry	55.03 mPa·s
363.15 K, 246900 kPa, Falling or rolling sphere viscometry	66.23 mPa·s
363.15 K, 250000 kPa, Falling or rolling sphere viscometry	70.4 mPa·s
